Experiments:
porcine tubulin = target: T1, porcine tubulin (Sus scrofa, UniProt P02550+P02554); test: In vitro tubulin polymerization assay; format: biochemical; settings: even at 300 μM
T1 construct: purchased Cytoskeleton
Experimental: In vitro tubulin polymerization assay was performed using a tubulin polymerization assay kit (Cytoskeleton) according to the manufacturer’s instructions. Briefly, lyophilized porcine tubulin was solubilized to a final concentration of 2 mg/mL in reaction buffer containing 80 mM piperazine-N,N′-bis(2-ethanesulfonic acid) (PIPES; pH 6.9), 2 mM MgCl2, 0.5 mM ethylene glycol tetraacetic acid (EGTA), 1 mM guanosine-5′-triphosphate (GTP), 10 μM fluorescent reporter, and 20% glycerol, and kept at 4 °C. Compounds (100 × DMSO stock solutions) were added to prewarmed half-area 96-well black plates. Cold tubulin solution was added to the wells. The plate contents were mixed by shaking, and fluorescence (Ex 350 nm, Em 435 nm) was read every minute for 1 h using a fluorescence microplate reader (Molecular Devices).

[1] = test system: nuclear 53BP1 foci in HeLa cells; test: 53BP1 foci immunofluorescence (DNA damage); format: cell-based, human; settings: 24 h, only at the higher concentrations (100-300 μM)
Experimental: For 53BP1, test compound–treated HeLa cells were fixed in 3% formalin in PBS containing 0.1% Triton X-100 for 15 min and permeabilized in 0.5% Triton X-100 for 5 min. After blocking with 10% FBS and 0.1% Triton X-100 in PBS for 1 h, cells were incubated sequentially with a primary antibody against 53BP1 (1:600, sc-22760; Santa Cruz Biotechnology) in blocking solution at 37 °C for 1 h and with Alexa Fluor 568-conjugated secondary antibody (1:400, Life Technologies) under the same condition.
After a quick rinse in PBS, DNA was counterstained with 0.5 µg/mL Hoechst 33342 (Sigma-Aldrich) in PBS at room temperature for 10 min. Images were analyzed on a fluorescence microscope (Delta Vision). […]

[2] = target: T2, MTH1 in intact HeLa cells (Homo sapiens, UniProt P36639); test: Target engagement assay (CETSA); format: cell-based; settings: 300 μM, 1 h
T2 construct: endogenous in cells; host or cells: HeLa
Experimental: To analyze the interaction between small-molecule ligands and their target proteins in intact cells, a cellular thermal shift assay (CETSA) was performed as described previously with minor modifications. […] After treatment, cells were collected with trypsin and resuspended in Tris-buffered saline (TBS). The cell suspension was aliquoted into four polymerase chain reaction (PCR) tubes and heated at 45, 50, 55, or 60 °C for 5 min. Subsequently, cells were lysed by three repeated freeze-thaw cycles using liquid nitrogen. Precipitated proteins were separated from the soluble fraction by centrifugation at 17,000 × g for 20 min. Soluble proteins collected in the supernatant were subjected to sodium dodecyl sulfate polyacrylamide gel electrophoresis (SDS-PAGE) and transferred to a polyvinylidene difluoride (PVDF) membrane (Millipore) for western blot analysis. […] Santa Cruz Biotechnology) and a horseradish peroxidase–labeled secondary antibody (Vector Laboratories) in sequence. They were then visualized with Fusion Solo S (Vilber Lourmat) using a Super Signal West Pico Chemiluminescence Substrate (Pierce). After detection of MTH1 by western blot, proteins on the membrane were visualized by staining with Coomassie brilliant blue (CBB).

[3] = Cell death assay (WST-8) in HeLa cells; format: cell-based, human; settings: human, HeLa cells (cervical cancer); 72 h, WST-8; read-out: cytotoxicity IC50 against HeLa cells
Experimental: (§1) Human cancer cell lines HeLa (cervical cancer), MIA PaCa-2 (pancreatic cancer), A431 (epidermoid carcinoma), and human embryonic kidney derived cell line HEK293T were cultured in Dulbecco’s Modified Eagle’s Medium (DMEM; Invitrogen) containing 10% fetal bovine serum (FBS), penicillin G (50 units/mL) and streptomycin (50 µg/mL). Human cancer cell lines Panc-1 (pancreatic cancer) and Jurkat (T cell lymphoma) were cultured in RPMI (Gibco) containing 10% FBS, penicillin G (50 units/mL) and streptomycin (50 µg/mL). Human osteosarcoma cell line MG-63, mouse embryonic fibroblast NIH3T3 cells and its transformant NIH3T3/KRAS cells1 were cultured in DMEM (Sigma-Aldrich) containing 10% calf serum, glutamine (0.3 g/L), penicillin G (50 units/mL), and streptomycin (50 µg/mL). All cell lines were incubated at 37 °C in a humidified atmosphere containing 5% CO2.
The cells were seeded in 96-well plates, cultured overnight, and treated with test compounds for the indicated time. Subsequently, cell viability was measured by the WST-8 assay, using Cell Count Reagent SF (Nacalai Tesque) according to the manufacturer ’s instructions, with the measurement of absorbance set at 450 nm on the ARVO SX 1420 Multilabel Counter (Wallac). […]

[4] = test system: 8-oxo-dG levels in DNA of HeLa cells; test: 8-oxo-dG immunofluorescence; format: cell-based, human; settings: 20 h, NPD compounds 100 μM, TH287 3 and 10 μM
Experimental: as §1, with “CO2. […]” for “CO2.”
The HeLa cells were seeded on glass coverslips in 12-well plates, cultured overnight, and treated with test compounds for the indicated time. For 8-oxo-dG, cells were fixed sequentially in 3.7% formalin for 10 min and methanol at -20 °C for 10 min, and then permeabilized in 0.5% Triton X-100 in PBS at room temperature for 5 min. After blocking with 0.5% BSA in PBS at room temperature for 30 min, cells were incubated sequentially with a primary antibody against 8-oxo-dG (5 µg/mL, MOG-020; Japan Institute for the Control of Aging) and with Alexa Fluor 488-conjugated secondary antibody (1:400, Life Technologies) under the same conditions. After a quick rinse in PBS, DNA was counterstained with 0.1 µg/mL 4′,6-diamidino-2-phenylindole (DAPI) in PBS at room temperature for 10 min. Images were analyzed with a fluorescence microscope (BX60, Olympus).

T1 sequence (P02550 whole entry): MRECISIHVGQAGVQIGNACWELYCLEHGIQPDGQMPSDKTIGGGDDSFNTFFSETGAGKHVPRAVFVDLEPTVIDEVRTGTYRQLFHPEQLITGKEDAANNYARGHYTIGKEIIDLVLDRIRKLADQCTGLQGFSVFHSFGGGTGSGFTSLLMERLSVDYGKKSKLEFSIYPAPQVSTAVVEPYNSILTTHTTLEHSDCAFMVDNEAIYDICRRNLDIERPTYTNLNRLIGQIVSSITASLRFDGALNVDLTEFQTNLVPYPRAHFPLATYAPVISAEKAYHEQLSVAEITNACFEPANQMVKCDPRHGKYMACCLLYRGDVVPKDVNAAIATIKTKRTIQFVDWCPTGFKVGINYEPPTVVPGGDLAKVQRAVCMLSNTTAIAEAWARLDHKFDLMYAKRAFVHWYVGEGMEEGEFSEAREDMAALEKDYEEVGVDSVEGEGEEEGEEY
T1 sequence (P02554 whole entry): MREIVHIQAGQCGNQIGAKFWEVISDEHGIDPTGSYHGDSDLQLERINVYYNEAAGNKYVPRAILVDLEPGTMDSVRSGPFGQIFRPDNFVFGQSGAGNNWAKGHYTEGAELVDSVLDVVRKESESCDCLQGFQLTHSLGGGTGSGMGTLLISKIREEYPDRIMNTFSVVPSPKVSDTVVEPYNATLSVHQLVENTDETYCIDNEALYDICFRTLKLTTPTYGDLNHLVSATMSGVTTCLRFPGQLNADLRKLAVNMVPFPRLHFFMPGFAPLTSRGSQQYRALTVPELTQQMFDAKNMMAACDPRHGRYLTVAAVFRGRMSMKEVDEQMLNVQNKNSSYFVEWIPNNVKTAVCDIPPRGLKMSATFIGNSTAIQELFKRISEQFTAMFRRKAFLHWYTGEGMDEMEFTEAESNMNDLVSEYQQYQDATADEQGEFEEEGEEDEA

Structure (SMILES)	effect on tubulin polymerization in vitro (porcine tubulin)	DNA damage (nuclear 53BP1 foci formation) [1]	thermal stabilization of cellular MTH1 [2]	IC50 at 72 h [3] [µM]	accumulation of 8-oxo-dG [4]
CC1(C)CC2CC(C)(CN2c2ncnc3[nH]cnc23)C1 (stereo not shown) [NPD7155]	did not affect tubulin polymerization	increased nuclear 53BP1 foci formation	considerably stabilized	65	did not induce the significant accumulation
Nc1nc(NCCc2ccccc2)c2nc[nH]c2n1 [NPD9948]	did not affect tubulin polymerization	increased nuclear 53BP1 foci formation	considerably stabilized	35	did not induce the significant accumulation

— paper PMC4876372 (Scientific Reports, 2016)
